Test results taken from patent publication US11197863B2, “Inhibitors of polo-like kinase 4 (PLK4) for treating pediatric embryonal tumors” (ANN AND ROBERT H. LURIE CHILDREN'S HOSPITAL OF CHICAGO, priority 2017, dated 2021).
Read-outs that look alike come from different tables or passages of the source.

Tests used:
DAOY cells = assay: Combination therapy viability assay; conditions: Homo sapiens, 72 h
BT-16 cells = assay: Combination therapy viability assay; assay type: cell-based; conditions: Homo sapiens, BT-16, 72 h, read-out: IC50 of compound 2
MON cells = assay: Combination therapy viability assay; assay type: cell-based; conditions: Homo sapiens, 72 h, read-out: IC50 of compound 2
[1] = children, single agent; cited from earlier work
[2] = system: rhabdoid mouse xenograft models; conditions: in vivo; cited from earlier work
[3] = system: rhabdoid tumor cell lines; conditions: inhibition of ERBB2; cited from earlier work
[4] = read-out: IC50 of compound 2, DAOY, combined with CFI-400945 (5 nM)
[5] = read-out: IC50 of compound 2, DAOY, combined with CFI-400945 (10 nM)
[6] = combined with CFI-400945 (5 nM)
[7] = combined with CFI-400945 (10 nM)

| Compound | IC50 (DAOY cells; [4]) | IC50 (DAOY cells; [5]) | IC50 (BT-16 cells; [6]) | IC50 (BT-16 cells; [7]) | IC50 (MON cells; [6]) | IC50 (MON cells; [7]) | clinical activity [1] | response rates [2] | cell migration and apoptosis [3] |
| --- | --- | --- | --- | --- | --- | --- | --- | --- | --- |
| COc1cc([C@@H]2c3cc4c(cc3[C@@H](O[C@@H]3O[C@@H]5CO[C@@H](C)O[C@H]5[C@H](O)[C@H]3O)[C@H]3COC(=O)[C@H]23)OCO4)cc(OC)c1O [Etoposide, etoposide] | 494 nM | 800 nM | 593 nM | 6 nM | 292 nM | 266 nM | – | – | – |
| COc1cc(Nc2ncc3c(n2)-c2ccc(Cl)cc2C(c2c(F)cccc2OC)=NC3)ccc1C(=O)O [alisertib] | – | – | – | – | – | – | active as a single agent | high response rates | – |
| CS(=O)(=O)CCNCc1ccc(-c2ccc3ncnc(Nc4ccc(OCc5cccc(F)c5)c(Cl)c4)c3c2)o1 [lapatinib] | – | – | – | – | – | – | – | – | significant impairment of cell migration and initiation of apoptosis |
| COc1cccc2c1C(=O)c1c(O)c3c(c(O)c1C2=O)C[C@@](O)(C(=O)CO)C[C@@H]3O[C@H]1C[C@H](N)[C@H](O)[C@H](C)O1 [Doxorubicin, doxorubicin] | 168 nM | 199 nM | 566 nM | 576 nM | 74 nM | 57 nM | – | – | – |
